From ChEMBL document CHEMBL5316276, “Discovery of the First Lactate Dehydrogenase Proteolysis Targeting Chimera Degrader for the Treatment of Pancreatic Cancer” (J Med Chem, 2023)
Each block holds one molecule with its values, some of them ahead of it. Active and inactive are the calls of the source. The calls are words filed in the database; no cut-off is given here.

Tests used:
[1] = biological target: T1, von Hippel-Lindau disease tumor suppressor/L-lactate dehydrogenase A chain (Homo sapiens) (UniProt P00338+P40337); test: Protac activity at VHL E3 ligase/LDHA in human PANC-1 cells assessed as induction of LDHA degradation at 10 uM incubated for 48 hrs by Western blotting analysis; format: cell-based
[2] = biological target: T1, von Hippel-Lindau disease tumor suppressor/L-lactate dehydrogenase A chain (Homo sapiens); test: Protac activity at VHL E3 ligase/LDHA in human MIA PaCa-2 cells assessed as induction of LDHA degradation at 0.3 to 3 uM incubated for 24 hrs by Western blotting analysis; format: cell-based; settings: dose 0.3-3 µM
PANC-1 = test: Antiproliferative activity against human PANC-1 cells assessed as cell growth inhibition incubated for 72 hrs by WST-8 assay; format: functional
MIA PaCa-2 = test: Antiproliferative activity against human MIA PaCa-2 cells assessed as cell growth inhibition incubated for 72 hrs by WST-8 assay; format: functional
BXPC-3 = test: Antiproliferative activity against human BXPC-3 cells assessed as cell growth inhibition incubated for 72 hrs by WST-8 assay; format: functional, cell-based
[3] = biological target: T1, von Hippel-Lindau disease tumor suppressor/L-lactate dehydrogenase A chain (Homo sapiens); test: Protac activity at VHL/LDHA in human BXPC-3 cells assessed as induction of LDHA degradation at 0.3 to 3 uM incubated for 24 hrs by Western blotting analysis; format: cell-based; settings: dose 0.3-3 µM
[4] = biological target: T2, L-lactate dehydrogenase A chain (Homo sapiens, UniProt P00338); test: Inhibition of recombinant human LDHA
[5] = biological target: T3, L-lactate dehydrogenase B chain (Homo sapiens, UniProt P07195); test: Inhibition of recombinant human LDHB
[6] = biological target: T2, L-lactate dehydrogenase A chain; test: Inhibition of human LDHA
[7] = biological target: T3, L-lactate dehydrogenase B chain; test: Inhibition of human LDHB

T3 sequence (P07195 whole entry): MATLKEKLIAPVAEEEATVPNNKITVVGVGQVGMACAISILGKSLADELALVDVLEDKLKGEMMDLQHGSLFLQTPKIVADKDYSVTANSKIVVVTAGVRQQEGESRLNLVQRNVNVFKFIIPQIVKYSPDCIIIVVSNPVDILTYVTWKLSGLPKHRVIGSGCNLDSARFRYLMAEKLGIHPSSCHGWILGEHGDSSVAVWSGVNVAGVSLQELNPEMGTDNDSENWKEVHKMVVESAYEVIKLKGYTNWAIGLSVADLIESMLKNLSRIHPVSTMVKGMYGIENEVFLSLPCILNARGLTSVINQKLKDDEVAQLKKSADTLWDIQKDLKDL

SMILES: Cc1ncsc1-c1ccc(CNC(=O)[C@@H]2C[C@@H](OCc3ccccc3)CN2C(=O)[C@@H](NC(=O)CCCCCCCCCCCC(=O)NCCCCC#Cc2cccc(-c3nn(-c4nc(C(=O)O)cs4)c(CC4CC4)c3Cc3ccc(S(N)(=O)=O)cc3)c2)C(C)(C)C)cc1
IC50 [4]: 2.6 nM | IC50 [5]: 43 nM

SMILES: Cc1ncsc1-c1ccc(CNC(=O)[C@@H]2C[C@@H](O)CN2C(=O)[C@@H](NC(=O)CCCCCC(=O)NCCCCC#Cc2cccc(-c3nn(-c4nc(C(=O)O)cs4)c(CC4CC4)c3Cc3ccc(S(N)(=O)=O)cc3)c2)C(C)(C)C)cc1
Activity [1]: Active

SMILES: Cc1ncsc1-c1ccc(CNC(=O)[C@@H]2C[C@@H](O)CN2C(=O)[C@@H](NC(=O)CCCCCCC(=O)NCCCCC#Cc2cccc(-c3nn(-c4nc(C(=O)O)cs4)c(CC4CC4)c3Cc3ccc(S(N)(=O)=O)cc3)c2)C(C)(C)C)cc1
Activity [1]: Active

The next lines start with results.

Activity [1]: Active
SMILES: Cc1ncsc1-c1ccc(CNC(=O)[C@@H]2C[C@@H](O)CN2C(=O)[C@@H](NC(=O)CCCCC(=O)NCCCCC#Cc2cccc(-c3nn(-c4nc(C(=O)O)cs4)c(CC4CC4)c3Cc3ccc(S(N)(=O)=O)cc3)c2)C(C)(C)C)cc1

Activity [2]: inactive | GI50 (PANC-1): > 30000 nM | GI50 (MIA PaCa-2): > 30000 nM | Activity [3]: inactive
SMILES: NS(=O)(=O)c1ccc(Cc2c(-c3cccc(-c4ccccc4)c3)nn(-c3nc(C(=O)O)cs3)c2CC2CC2)cc1
inhibition (BXPC-3): inactive

IC50 [6]: 3 nM | IC50 [7]: 5 nM
SMILES: Cc1ccc(C#Cc2cccc(-c3nn(-c4nc(C(=O)O)cs4)c(CC4CC4)c3Cc3ccc(S(N)(=O)=O)c(F)c3)c2)s1
